Results taken from ChEMBL document CHEMBL1909544, “Renin inhibitors for the treatment of hypertension: design and optimization of a novel series of tertiary alcohol-bearing piperidines” (Bioorg Med Chem Lett, 2011).

What was measured:
Type in all cases: ADME, organism-based
[1] = Clearance in Sprague-Dawley rat at 3 mg/kg, po and 5 mg/kg, iv; conditions: in vivo
[2] = Half life in Sprague-Dawley rat at 3 mg/kg, po and 5 mg/kg, iv; conditions: in vivo
[3] = AUC in Sprague-Dawley rat at 3 mg/kg, po; design: dose 3 mg/kg, route oral; conditions: plasma
[4] = Volume of distribution at steady state in Sprague-Dawley rat at 3 mg/kg, po and 5 mg/kg, iv; conditions: in vivo, read-out: Vdss
[5] = Oral bioavailability in Sprague-Dawley rat at 3 mg/kg; conditions: in vivo
[6] = Oral bioavailability in Sprague-Dawley rat at 0.3 mg/kg; conditions: in vivo
[7] = Half life in Sprague-Dawley rat at 5 mg/kg, iv; design: dose 5 mg/kg, route intravenous; conditions: in vivo
[8] = Clearance in Sprague-Dawley rat at 5 mg/kg, iv; design: dose 5 mg/kg, route intravenous; conditions: in vivo
[9] = Oral bioavailability in Sprague-Dawley rat at 30 mg/kg; conditions: in vivo
[10] = Volume of distribution at steady state in Sprague-Dawley rat at 5 mg/kg, iv; design: dose 5 mg/kg, route intravenous; conditions: in vivo, read-out: Vdss

O=C([C@H]1CNCC[C@]1(OCC(O)CO)c1ccc(F)c(F)c1)N(Cc1cn(Cc2cccc(F)c2)c2cccc(F)c12)C1CC1 (mixture of isomers)
clearance [1]: 16 mL/min/kg | half-life [2]: 2.6 h | AUC [3]: 0.04 µM·h | Vd [4]: 0.4 L/kg | bioavailability [5]: < 1%

O=C([C@H]1CNCC[C@]1(O)c1ccc(F)c(F)c1)N(Cc1cn(Cc2cccc(F)c2)c2cccc(F)c12)C1CC1 (racemic)
clearance [1]: 93 mL/min/kg | half-life [2]: 9.4 h | AUC [3]: 0.34 µM·h | Vd [4]: 48 L/kg | bioavailability [5]: 37%

COCCCc1cc(CN(C(=O)C2CNCCC2(O)c2ccc(F)c(F)c2)C2CC2)cc(OCCOC)c1 (single isomer, unassigned)
bioavailability [6]: 17% | half-life [7]: 1.5 h | clearance [8]: 36 mL/min/kg | bioavailability [9]: 18% | bioavailability [5]: 29% | Vd [10]: 5 L/kg
